Converted amounts (≈) assume the structure as drawn. Like-named read-outs stand apart in the source and are kept apart here.
System: Escherichia coli
Assay: Plate reader antimicrobial susceptibility test (MIC) directly from positive blood culture
Type: cell-based
Conditions: for MIC: Escherichia coli
Description: The tests can also provide a low labor cost. Disclosed in this example are systems and methods for performing ASTs directly from positive blood cultures. De-identified hospital patient positive blood cultures were received within 8 hours of being flagged positive. ASTs were performed using various antimicrobial agents, namely seven antibiotics (ceftazidime, meropenem, tobramycin, levofloxacin, cefepime, gentamicin, and amikacin). The positive blood cultures were diluted 250-fold in cation-adjusted Mueller-Hinton Broth (CAMHB) media and 100 μL of this diluted sample was dispensed into each well of a 96-well microtiter plate, already containing 100 μL of varying concentration of one antibiotic. […] The sample-filled 96-well plate was sealed by sterile plastic film and incubated in a microtiter plate reader at 37° C. A temperature gradient of 0.5° C. was selected to prevent condensation on cover film. Each well was scanned every one hour from 400 to 895 nm with a 5 nm step starting from the time of incubation (0 hours) resulting in a total of nineteen spectra per well.
Relating to data analysis-spectra (400 to 895 nm) vs time were acquired from each well. Spectral principal components (PCs) were computed for all wells at each time point and those explaining at least 90% of the variance were calculated. […] Determining the lowest concentration for each antibiotic that inhibited growth based on these spectral overlaps determined the MIC for each antibiotic used.
The antibiotics concentrations are as in the plate layout and growth is measures as absorption at each excitation wavelength compares with the positive controls. Dark red indicates growth while bright red indicates no growth.

[1] = 6 hours incubation at 37° C, positive blood culture diluted 500-fold in CAMHB, assay of FIG. 4, read-out: MIC (6 hours)
[2] = 8 hours incubation at 37° C, positive blood culture diluted 500-fold in CAMHB, assay of FIG. 4, read-out: MIC (8 hours)
[3] = 10 hours incubation at 37° C, positive blood culture diluted 500-fold in CAMHB, assay of FIG. 4, read-out: MIC (10 hours)
[4] = 18 hours incubation at 37° C, positive blood culture diluted 500-fold in CAMHB, assay of FIG. 4, read-out: MIC (18 hours)

Row | Compound | MIC [1] [µg/mL] | MIC [2] [µg/mL] | MIC [3] [µg/mL] | MIC [4] [µg/mL] | further results
1 | C[C@@H](O)[C@H]1C(=O)N2C(C(=O)O)=C(S[C@@H]3CN[C@H](C(=O)N(C)C)C3)[C@H](C)[C@H]12 [Meropenem, meropenem] | ≤ 0.0312 | ≤ 0.0312 | ≤ 0.0312 | ≤ 0.0312 | 
2 | CO/N=C(\C(=O)N[C@@H]1C(=O)N2C(C(=O)[O-])=C(C[N+]3(C)CCCC3)CS[C@H]12)c1csc(N)n1 [Cefepime, cefepime] |  |  |  |  | MIC (6 h, read-out: MIC (6 hours)): ≤ 0.0312 µg/mL; MIC (8 h, read-out: MIC (8 hours)): ≤ 0.0312 µg/mL; MIC (10 h, read-out: MIC (10 hours)): ≤ 0.0312 µg/mL; MIC (18 h, read-out: MIC (18 hours)): ≤ 0.0312 µg/mL
3 | NCC[C@H](O)C(=O)N[C@@H]1C[C@H](N)[C@@H](O[C@H]2O[C@H](CN)[C@@H](O)[C@H](O)[C@H]2O)[C@H](O)[C@H]1O[C@H]1O[C@H](CO)[C@@H](O)[C@H](N)[C@H]1O [Amikacin, amikacin] | 2 (≈ 3.42 µM) | 2 (≈ 3.42 µM) | 2 (≈ 3.42 µM) | 2 (≈ 3.42 µM) | 
4 | C[C@H]1COc2c(N3CCN(C)CC3)c(F)cc3c(=O)c(C(=O)O)cn1c23 [Levofloxacin, levofloxacin] | ≤ 0.0312 | ≤ 0.0312 | ≤ 0.0312 | ≤ 0.0312 | 
5 | CC(C)(O/N=C(\C(=O)N[C@@H]1C(=O)N2C(C(=O)[O-])=C(C[n+]3ccccc3)CS[C@H]12)c1csc(N)n1)C(=O)O [Ceftazidime, ceftazidime] | 0.0625 (≈ 0.114 µM) | 0.0625 (≈ 0.114 µM) | 0.0625 (≈ 0.114 µM) | 0.0625 (≈ 0.114 µM) | 
6 | gentamicin |  |  |  |  | MIC (6 hours) (6 hours incubation at 37° C, positive blood culture diluted 500-fold in CAMHB, assay of FIG. 4): 1 µg/mL; MIC (8 hours) (8 hours incubation at 37° C, positive blood culture diluted 500-fold in CAMHB, assay of FIG. 4): 1 µg/mL; MIC (10 hours) (10 hours incubation at 37° C, positive blood culture diluted 500-fold in CAMHB, assay of FIG. 4): 1 µg/mL; MIC (18 hours) (18 hours incubation at 37° C, positive blood culture diluted 500-fold in CAMHB, assay of FIG. 4): 1 µg/mL
7 | NC[C@H]1O[C@H](O[C@H]2[C@H](O)[C@@H](O[C@H]3O[C@H](CO)[C@@H](O)[C@H](N)[C@H]3O)[C@H](N)C[C@@H]2N)[C@H](N)C[C@@H]1O [Tobramycin, tobramycin] | 1 (≈ 2.14 µM) | 1 (≈ 2.14 µM) | 1 (≈ 2.14 µM) | 1 (≈ 2.14 µM) | 

Reference: patent publication US20250361543A1, “Instrumentation for Rapid Antimicrobial Susceptibility Testing from Bodily Fluids and Cultures” (Georgia Tech Research Corporation, priority 2022, published 2025)
